Assay results taken from US9725416B2, “Ethynyl derivatives” (Hoffmann-La Roche Inc., priority 2014, dated 2017).

Molecular target: T1, human mGlu4 receptor (Homo sapiens, UniProt Q14833)
T1 construct: expressed in transfected cells; host or cells: HEK-293 (monoclonal, stably transfected)
Assay: Ca2+ mobilization in vitro assay on recombinant human mGlu4 expressed in HEK293 cells (mGlu4 PAM)
Assay type: cell-based
Conditions: for Emax: HEK293, maximal response in % of the maximal stimulatory effect obtained with saturating concentrations of L-AP4, read-out: Eff. (%); for EC50: HEK-293 cells, Ca2+ mobilization, L-AP4 added at EC20
Description: Determination of EC50 Values Using a Ca2+ mobilization in vitro Assay on Recombinant Human mGlu4 Expressed in HEK293 cells:
A monoclonal HEK-293 cell line stably transfected with a cDNA encoding for the human mGlu4 receptor was generated; for the work with mGlu4 Positive Allosteric Modulators (PAMs), a cell line with low receptor expression levels and low constitutive receptor activity was selected to allow the differentiation of agonistic versus PAM activity. Cells were cultured according to standard protocols (Freshney, 2000) in Dulbecco's Modified Eagle Medium with high glucose supplemented with 1 mM glutamine, 10% (vol/vol) heat-inactivated bovine calf serum, Penicillin/Streptomycin, 50 μg/ml hygromycin and 15 μg/ml blasticidin (all cell culture reagents and antibiotics from Invitrogen, Basel, Switzerland).
About 24 hrs before an experiment, 5×10^4 cells/well were seeded in poly-D-lysine coated, black/clear-bottomed 96-well plates. The cells were loaded with 2.5 μM Fluo-4AM in loading buffer (1×HBSS, 20 mM HEPES) for 1 hr at 37° C. and washed five times with loading buffer. The cells were transferred into a Functional Drug Screening System 7000 (Hamamatsu, Paris, France), and 11 half logarithmic serial dilutions of test compound at 37° C. were added and the cells were incubated for 10-30 min. with on-line recording of fluorescence. Following this pre-incubation step, the agonist (2S)-2-amino-4-phosphonobutanoic acid (L-AP4) was added to the cells at a concentration corresponding to EC20 with on-line recording of fluorescence; in order to account for day-to-day variations in the responsiveness of cells, the EC20 of L-AP4 was determined immediately ahead of each experiment by recording of a full dose-response curve of L-AP4.
Responses were measured as peak increase in fluorescence minus basal (i.e. fluorescence without addition of L-AP4), normalized to the maximal stimulatory effect obtained with saturating concentrations of L-AP4. Graphs were plotted with the % maximal stimulatory using XLfit, a curve fitting program that iteratively plots the data using Levenburg Marquardt algorithm. The single site competition analysis equation used was y=A+((B−A)/(1+((x/C)D))), where y is the % maximal stimulatory effect, A is the minimum y, B is the maximum y, C is the EC50, x is the log 10 of the concentration of the competing compound and D is the slope of the curve (the Hill Coefficient). From these curves the EC50 (drug concentration at which 50% of the maximal receptor activation was achieved), the Hill coefficient as well as the maximal response in % of the maximal stimulatory effect obtained with saturating concentrations of L-AP4 were calculated (see FIG. 1).
A depression of the signal observed after addition of the EC20 concentration of L-AP4was indicative of an inhibitory activity of the test compound.

T1 sequence (Q14833 33-912): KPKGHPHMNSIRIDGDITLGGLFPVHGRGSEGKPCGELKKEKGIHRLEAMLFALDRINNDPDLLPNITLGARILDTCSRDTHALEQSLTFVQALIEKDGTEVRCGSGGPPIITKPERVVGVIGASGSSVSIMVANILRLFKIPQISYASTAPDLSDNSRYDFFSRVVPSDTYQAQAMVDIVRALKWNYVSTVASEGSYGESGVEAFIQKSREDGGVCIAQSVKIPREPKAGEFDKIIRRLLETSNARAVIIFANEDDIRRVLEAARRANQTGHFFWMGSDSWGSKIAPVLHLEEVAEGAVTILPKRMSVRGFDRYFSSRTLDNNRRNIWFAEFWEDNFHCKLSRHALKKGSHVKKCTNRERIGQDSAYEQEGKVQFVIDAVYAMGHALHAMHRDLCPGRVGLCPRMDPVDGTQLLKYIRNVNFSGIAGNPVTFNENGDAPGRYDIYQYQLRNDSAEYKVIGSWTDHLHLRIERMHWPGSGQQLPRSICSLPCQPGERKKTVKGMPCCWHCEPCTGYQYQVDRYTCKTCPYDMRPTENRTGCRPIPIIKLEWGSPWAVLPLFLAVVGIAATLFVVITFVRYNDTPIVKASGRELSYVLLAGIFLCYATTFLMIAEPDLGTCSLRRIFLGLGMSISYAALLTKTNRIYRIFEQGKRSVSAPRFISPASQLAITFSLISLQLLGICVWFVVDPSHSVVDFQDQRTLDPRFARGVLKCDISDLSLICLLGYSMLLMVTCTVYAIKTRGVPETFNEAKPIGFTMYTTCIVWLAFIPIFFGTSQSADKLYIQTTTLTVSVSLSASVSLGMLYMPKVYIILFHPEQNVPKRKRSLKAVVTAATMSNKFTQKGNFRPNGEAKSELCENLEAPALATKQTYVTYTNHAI

SMILES | Emax [%] | EC50 [nM]
CN1C(=O)N(c2c(F)cc(C#Cc3cccnc3)cc2F)C(=O)C[C@@]1(C)c1cccnc1 [Example 53, (6S)-3-[2,6-Difluoro-4-[2-(3-pyridyl)ethynyl]phenyl]-1,6-dimethyl-6-(3-pyridyl)hexahydropyrimidine-2,4-dione] | 110 | 80
CC(C)Oc1ccc([C@]2(C)CC(=O)N(c3c(F)cc(C#Cc4ccccc4)cc3F)C(=O)N2C)cn1 [Example 69, (6S)-3-[2,6-Difluoro-4-(2-phenylethynyl)phenyl]-6-(6-isopropoxy-3-pyridyl)-1,6-dimethyl-hexahydropyrimidine-2,4-dione] | 95 | 97
CN1C(=O)N(c2c(F)cc(C#Cc3ccccc3)cc2F)C(=O)C[C@@]1(C)c1ccn(C)c(=O)c1 [Example 75, (6S)-3-[2,6-Difluoro-4-(2-phenylethynyl)phenyl]-1,6-dimethyl-6-(1-methyl-2-oxo-4-pyridyl)hexahydropyrimidine-2,4-dione] | 108 | 55
CN1C(=O)N(c2c(F)cc(C#Cc3cccnc3)cc2F)C(=O)CC1(C)C1CCCCC1 (racemic) [Example 31, (6RS)-6-Cyclohexyl-3-[2,6-difluoro-4-[2-(3-pyridyl)ethynyl]phenyl]-1,6-dimethyl-hexahydropyrimidine-2,4-dione] | 117 | 245
CN1C(=O)N(c2ccc(C#Cc3ccccc3)cc2Cl)C(=O)CC1(C)c1cccnc1 (racemic) [Example 47, (6RS)-3-[2-Chloro-4-(2-phenylethynyl)phenyl]-1,6-dimethyl-6-(3-pyridyl)hexahydropyrimidine-2,4-dione] | 121 | 132
CN1C(=O)N(c2c(F)cc(C#Cc3cccnc3)cc2Cl)C(=O)CC1(C)C [Example 9, 3-[2-Chloro-6-fluoro-4-[2-(3-pyridyl)ethynyl]phenyl]-1,6,6-trimethyl-hexahydropyrimidine-2,4-dione] | 110 | 429
CN1C(=O)N(c2c(F)cc(C#Cc3ccccc3)cc2F)C(=O)C[C@@]1(C)c1cc[nH]c(=O)c1 [Example 74, (6S)-3-[2,6-Difluoro-4-(2-phenylethynyl)phenyl]-1,6-dimethyl-6-(2-oxo-1H-pyridin-4-yl)hexahydropyrimidine-2,4-dione] | 116 | 42

Next, values leading:

Emax [%] | EC50 [nM] | SMILES
97 | 131 | CC12CC(=O)N(c3c(F)cc(C#Cc4ccccc4)cc3F)C(=O)N1CCN(Cc1ccccc1)C2=O (racemic) [Example 37, (9aRS)-2-Benzyl-7-[2,6-difluoro-4-(2-phenylethynyl)phenyl]-9a-methyl-4,9-dihydro-3H-pyrazino[1,2-c]pyrimidine-1,6,8-trione]
103 | 155 | CN1C(=O)N(c2ncc(C#Cc3ccccc3)cc2Cl)C(=O)CC1(C)c1ccccc1 (racemic) [Example 32, (6RS)-3-[3-Chloro-5-(2-phenylethynyl)-2-pyridyl]-1,6-dimethyl-6-phenyl-hexahydropyrimidine-2,4-dione]
241 | 49 | CCC1(C)CC(=O)N(c2c(F)cc(C#Cc3ccccc3)cc2F)C(=O)N1C (racemic) [Example 18, (6RS)-3-[2,6-Difluoro-4-(2-phenylethynyl)phenyl]-6-ethyl-1,6-dimethyl-hexahydropyrimidine-2,4-dione]
111 | 103 | Cc1nccc([C@]2(C)CC(=O)N(c3c(F)cc(C#Cc4ccccc4)cc3F)C(=O)N2C)n1 [Example 76, (6S)-3-[2,6-Difluoro-4-(2-phenylethynyl)phenyl]-1,6-dimethyl-6-(2-methylpyrimidin-4-yl)hexahydropyrimidine-2,4-dione]
114 | 40 | CN1C(=O)N(c2c(F)cc(C#Cc3ccccc3)cc2F)C(=O)C[C@@]1(C)c1cnc2c(ccn2C)c1 [Example 84, (6S)-3-[2,6-Difluoro-4-(2-phenylethynyl)phenyl]-1,6-dimethyl-6-(1-methylpyrrolo[2,3-b]pyridin-5-yl)hexahydropyrimidine-2,4-dione]
